Experimental data: patent publication US20150175655A1 (priority 2012, published 2015)

Molecular target: T1, NS3 genotype 1b protease (Hepatitis C virus genotype 1b, UniProt Q9WMX2, E1202G)
T1 construct: Purified NS3 protease domain (amino acids 1-181) of the genotype 1b and 3a virus were generated as above; K3 hexahistidine tag (N); rTEV protease cleavage site (N); made in house; host or cells: E. coli BL21AI, pET28 vector p28-N6H-Tev-NS3(181)1b
Experiment: Ki determination, NS3 protease genotype 1b (fluorogenic depsipeptide substrate)
Type: biochemical
Settings: not given
Description: The coding sequence of the genotype 1b (con-1 strain) HCV NS3 protease domain was PCR amplified from a plasmid encoding the I389luc-ubi-neo/NS3-3′/ET replicon (Reblikon, Mainz, Germany). The 5′-PCR primer was designed to encode an N-terminal K3 hexahistidine tag and to insert an in-frame recombinant Tobacco Etch virus (rTEV) protease cleavage site into the NS3 coding sequence. The resulting DNA fragment was cloned into the pET28 protein expression vector (Invitrogen, Carlsbad, Calif.) yielding the p28-N6H-Tev-NS3(181)1b.
BL21AI bacteria (Invitrogen, Carlsbad, Calif.) were transformed with genotype 1b or 3 NS3 expression vectors and used to inoculate a 20 L fermentation vessel (Sartorius BBI System Inc., Bethlehem, Pa.), containing 18 L of fresh 2YT medium supplemented with 50 μg/mL kanamycin. When cell densities reached an OD600 of 1, the temperature of the cultures was reduced from 37° C. to 28° C. and induction was immediately initiated by the addition of 30 μM ZnSO4, 14 mM L-arabinose and 1 mM Isopropyl β-D-thiogalactoside (IPTG) final concentrations. Cells were harvested by centrifugation four hours post-induction and were stored as frozen pellets at −80° C. prior to NS3 protein purification.
Cell pellets were thawed and resuspended at 10 mL/g cells in lysis buffer containing 50 mM tris pH 7.6, 300 mM NaCl, 0.1% 3-[(3-cholamidopropyl)dimethylammonio]-1-propanesulfonate (CHAPS), 5% glycerol, and 2 mM β-mercaptoethanol. Cell suspensions were then sonicated, filtered through cheesecloth, and passed three times through a microfluidizer at 18,000 pounds/in^2. The resulting lysates were centrifuged at 15500 rpm for 45 minutes and supernatants were loaded onto a HisTrap HP column (GE Lifesciences) pre-equilibrated with five volumes of Ni buffer A (50 mM tris pH 7.6, 300 mM NaCl, 0.1% CHAPS, 5% glycerol, 2 mM β-mercaptoethanol, 50 mM imidazole-HCl). Proteins were eluted with a 0-100% gradient of Ni buffer A plus 500 mM imidazole-HCl and fractions were collected and pooled. The HisTrap pool was diluted 1:10 with SP-A buffer (50 mM tris pH 7.0, 10% glycerol, 2 mM dithiothreitol (DTT)) and loaded onto a HiTrap SP-HP column (GE Lifesciences) equilibrated with SP-A buffer. NS3 protease was eluted with a 0-100% SP-B buffer (SP-A buffer plus 1 M NaCl) gradient. Concentrated pools of NS3-containing SP fractions were aliquoted, snap frozen in liquid nitrogen and stored at −80° C.
Purified NS3 protease domain (amino acids 1-181) of the genotype 1b and 3a virus were generated as above.
Reactions were run at room temperature in buffer consisting of 50 mM HEPES, 40% glycerol, 0.05% Triton X-100, 10 mM DTT, and 10% DMSO. The final assay solutions contained 50 pM NS3 genotype 1b protease or 200 pM genotype 3a protease, 20 μM NS4A peptide, and 4 μM substrate (genotype 1 b) or 2 μM substrate (genotype 3a). Inhibitor concentrations varied from 100 nM to 5 pM in 3-fold dilutions, and no-inhibitor controls were included.
Compound dilutions were made in DMSO at 20× final concentration. Reaction mixtures were prepared in 96-well assay plates. A solution of enzyme and NS4A peptide in assay buffer (25 μL volume with both reagents at 4× final concentration) was mixed with 45 μL assay buffer and 5 μL of either inhibitor or DMSO, and pre-incubated at room temperature for 1 hour. The reaction was started by addition of 25 μL substrate solution at 4× final concentration. Plates were mixed vigorously for 5-10 seconds and reactions were allowed to proceed for 90 minutes. fluorescence was measured every 30 s between 90 and 120 minutes reaction time using a Tecan InfiniTe M1000 or PerkinElmer Envision multimode plate reader with an excitation wavelength of 340 nm and an emission wavelength of 490 nm.
To determine the K, rates were plotted as a function of inhibitor concentration, and the data were fit with equation 1 (Morrison, J. F., Biochimica et Biophysica Acta 1969, 185, 269-286) to calculate Ki^app using GraphPad Prism 5.

`COc1ccc2nc3c(nc2c1)O[C@H]1CN(C(=O)[C@H](C(C)(C)C)NC(=O)O[C@]2(C)C[C@H]2CCCCC3(F)F)[C@H](C(=O)N[C@]2(C(=O)NS(=O)(=O)C3(C)CC3)C[C@H]2C(F)F)[C@@H]1C` (single isomer, unassigned) [Example 76] was tested. Which Ki did it give?
Its Ki is 0.03 nM.

Which Ki does the source give for `CC[C@@H]1[C@@H]2CN(C(=O)[C@H](C(C)(C)C)NC(=O)O[C@@H]3C[C@H]3CCCCCc3nc4ccc(OC)cc4nc3O2)[C@@H]1C(=O)N[C@]1(C(=O)NS(=O)(=O)C2(C)CC2)C[C@H]1C(F)F` [Example 1, (1aR,5S,8S,9S,10R,22aR)-5-tert-butyl-N-[ (1R,2R)-2-(difluoromethyl)-1-{[(1-methylcyclopropyl)sulfonyl]carbamoyl}cyclopropyl]-9-ethyl-14-methoxy-3,6-dioxo-1,1a,3,4,5,6,9,10,18,19,20,21,22,22a-tetradecahydro-8H-7,10-methanocyclopropa[18,19][1,10,3,6]dioxadiazacyclononadecino[11,12-b]quinoxaline-8-carboxamide] here?
The Ki was 0.03 nM.

Molecular target: T2, NS3 genotype 3a protease (UniProt Q81258)
T2 construct: Purified NS3 protease domain (amino acids 1-181) of the genotype 1b and 3a virus were generated as above; fused on or other part: N-terminal hexahistidine tag and rTEV protease cleavage site (vector p28-N6H-Tev-NS3(181)3)
T2 sequence (Q81258 1033-1663): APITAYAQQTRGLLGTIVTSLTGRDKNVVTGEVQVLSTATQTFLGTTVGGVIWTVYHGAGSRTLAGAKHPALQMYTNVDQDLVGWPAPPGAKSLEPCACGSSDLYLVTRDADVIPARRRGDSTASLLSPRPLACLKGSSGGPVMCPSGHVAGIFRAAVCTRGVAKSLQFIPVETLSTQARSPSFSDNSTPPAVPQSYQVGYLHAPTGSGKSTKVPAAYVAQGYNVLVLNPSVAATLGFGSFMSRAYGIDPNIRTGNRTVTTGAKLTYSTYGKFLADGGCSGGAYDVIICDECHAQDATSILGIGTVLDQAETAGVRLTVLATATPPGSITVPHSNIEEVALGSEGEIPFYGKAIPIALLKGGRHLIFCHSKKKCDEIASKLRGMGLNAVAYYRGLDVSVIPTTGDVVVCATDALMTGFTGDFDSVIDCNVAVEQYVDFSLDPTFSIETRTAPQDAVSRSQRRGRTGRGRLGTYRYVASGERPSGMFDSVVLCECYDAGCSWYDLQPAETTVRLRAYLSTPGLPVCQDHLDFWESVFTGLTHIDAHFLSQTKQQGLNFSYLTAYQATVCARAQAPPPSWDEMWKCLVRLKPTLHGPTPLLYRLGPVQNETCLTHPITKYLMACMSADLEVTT
Experiment: Ki determination, NS3 protease genotype 3a (fluorogenic depsipeptide substrate)
Type: biochemical, hepatitis C virus
Settings: 200 pM enzyme, 20 μM NS4A peptide, 2 μM substrate, read-out: Ki 3A
Method in brief: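 Refolded His-tagged NS3 protease domain (aa 1-181, genotype 3a) at 200 pM with 20 μM NS4A peptide was pre-incubated 1 h at RT with inhibitor (100 nM–5 pM, 3-fold), then 2 μM FRET depsipeptide substrate was added in HEPES/40% glycerol/10% DMSO buffer. Steady-state rates over 90-120 min (ex 340/em 490 nm) versus inhibitor concentration gave Ki.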

`COc1ccc2nc3c(nc2c1)O[C@H]1CN(C(=O)[C@H](C(C)(C)C)NC(=O)O[C@@H]2C[C@@H]4C[C@@H]4[C@H]2CCCCC3(F)F)[C@H](C(=O)N[C@]2(C(=O)NS(=O)(=O)C3(C)CC3)C[C@H]2C(F)F)[C@@H]1C` [Example 81, (1aS,2aR,6S,9S,10S,11R,23aR,23bS)-6-tert-butyl-N-[(1R,2R)-2-(difluoromethyl)-1-{[(1-methylcyclopropyl)sulfonyl]carbamoyl}cyclopropyl]-19,19-difluoro-15-methoxy-10-methyl-4,7-dioxo-1a,2,2a,4,5,6,7,10,11,19,20,21,22,23,23a,23b-hexadecahydro-1H,9H-8,11-methanocyclopropa[4′,5′]cyclopenta[1′,2′:18,19][1,10,3,6]dioxadiazacyclononade cino[11,12-b]quinoxaline-9-carboxamide] was tested. Which Ki did it give?
Its Ki is 0.05 nM.

`C[C@@H]1[C@@H]2CN(C(=O)[C@H](C(C)(C)C)NC(=O)O[C@@H]3C[C@@H]4C[C@@H]4[C@H]3CCCCC(F)(F)c3nc4ccccc4nc3O2)[C@@H]1C(=O)N[C@]1(C(=O)NS(=O)(=O)C2(C)CC2)C[C@H]1C(F)F` [Example 82, (1aS,2aR,6S,9S,10S,11R,23aR,23bS)-6-tert-butyl-N-[(1R,2R)-2-(difluoromethyl)-1-{[(1-methylcyclopropyl)sulfonyl]carbamoyl}cyclopropyl]-19,19-difluoro-10-methyl-4,7-dioxo-1a,2,2a,4,5,6,7,10,11,19,20,21,22,23,23a,23b-hexadecahydro-1H,9H-8,11-methanocyclopropa[4′,5′]cyclopenta[1′,2′:18,19][1,10,3,6]dioxadiazacyclononade cino[11,12-b]quinoxaline-9-carboxamide] was tested. Which Ki did it give?
Its Ki is 0.04 nM.

`CC[C@@H]1[C@@H]2CN(C(=O)[C@H](C(C)(C)C)NC(=O)O[C@@H]3C[C@H]3CCCCC(F)(F)c3nc4ccc(OC(F)F)cc4nc3O2)[C@@H]1C(=O)N[C@]1(C(=O)NS(=O)(=O)C2(C)CC2)C[C@H]1C(F)F` [Example 85, (1aR,5S,8S,9S,10R,22aR)-5-tert-butyl-14-(difluoromethoxy)-N-[(1R,2R)-2-(difluoromethyl)-1-{[(1-methylcyclopropyl)sulfonyl]carbamoyl}cyclopropyl]-9-ethyl-18,18-difluoro-3,6-dioxo-1,1a,3,4,5,6,9,10,18,19,20,21,22,22a-tetradecahydro-8H-7,10-methanocyclopropa[18,19][1,10,3,6]dioxadiazacyclononadecino[11,12-b]quinoxaline-8-carboxamide] was tested. Which Ki did it give?
Its Ki is 0.03 nM.

Which Ki does the source give for `CC[C@@H]1[C@@H]2CN(C(=O)[C@H](C(C)(C)C)NC(=O)O[C@@H]3C[C@H]3CCCCC(F)(F)c3nc4ccc(C#N)cc4nc3O2)[C@@H]1C(=O)N[C@]1(C(=O)NS(=O)(=O)C2(C)CC2)C[C@H]1C(F)F` [Example 87, (1aR,5S,8S,9S,10R,22aR)-5-tert-butyl-14-cyano-N-[(1R,2R)-2-(difluoromethyl)-1-{[(1-methylcyclopropyl)sulfonyl]carbamoyl}cyclopropyl]-9-ethyl-18,18-difluoro-3,6-dioxo-1,1a,3,4,5,6,9,10,18,19,20,21,22,22a-tetradecahydro-8H-7,10-methanocyclopropa[18,19][1,10,3,6]dioxadiazacyclononadecino[11,12-b]quinoxaline-8-carboxamide] here?
Its Ki is 0.05 nM.

Which Ki does the source give for `CC[C@@H]1[C@@H]2CN(C(=O)[C@H](C(C)(C)C)NC(=O)O[C@@H]3C[C@H]3CCCCC(F)c3nc4ccc(OC)cc4nc3O2)[C@@H]1C(=O)N[C@]1(C(=O)NS(=O)(=O)C2(C)CC2)C[C@H]1C(F)F` (stereo partly drawn) [Example 90, (1aR,5S,8S,9S,10R,22aR)-5-tert-butyl-N-[(1R,2R)-2-(difluoromethyl)-1-{[(1-methylcyclopropyl)sulfonyl]carbamoyl}cyclopropyl]-9-ethyl-18-fluoro-14-methoxy-3,6-dioxo-1,1a,3,4,5,6,9,10,18,19,20,21,22,22a-tetradecahydro-8H-7,10-methanocyclopropa[18,19][1,10,3,6]dioxadiazacyclononadecino[11,12-b]quinoxaline-8-carboxamide] here?
Its Ki is 0.13 nM.
